Results taken from PMC6736568, “Discovery of Novel Anti-cryptosporidial Activities From Natural Products by in vitro High-Throughput Phenotypic Screening” (Frontiers in Microbiology, 2019).
Counter-ions that a name gives are not always drawn. Like-named read-outs stand apart in the source and are kept apart here.

Experiments:
[1] = test system: HCT-8 host cells (Hs18S)
[2] = test system: Cryptosporidium parvum; experiment: qRT-PCR assay of the growth of C. parvum in vitro in HCT-8 host cells (primary and secondary screening, EC50); format: cell-based; conditions: Cryptosporidium parvum, HCT-8; for inhibition at 10 µM: primary screening at 10 uM, read-out: Inhibition (%); for inhibition at 3.3 µM: secondary screening at 3.3 uM, read-out: % Inhibition (3.3 uM)
[3] = in vitro; conditions: for cytotoxicity at 41 h, 10 µM: human
[4] = primary screening at 10 uM, treated vs control

Row | SMILES | Hs18S ΔCT ([1]; human, 41 h, 10 μM) | inhibition at 10 µM [2] [%] | cytotoxicity at 41 h, 10 µM [3] [%] | inhibition at 3.3 µM [2] [%] | cytotoxicity at 10 µM [3] [%] | Hs18S ΔCT [1, 4] | Hs18S ΔCT [1]
1 | N[C@@H](C(=O)O)[C@@H](O)[C@H](O)[C@H](O)CO [GLUCOSAMINIC ACID] | 0.22 | -5.48 | 13.9 | – | – | – | –
2 | N[C@@H](CCC(=O)N[C@@H](CS)C(=O)NCC(=O)O)C(=O)O [GLUTATHIONE] | -0.40 | 68.1 | -32 | -20 | – | – | –
3 | C[C@H](CCC(=O)NCC(=O)O)[C@H]1CC[C@H]2[C@@H]3[C@H](O)C[C@@H]4C[C@H](O)CC[C@]4(C)[C@H]3C[C@H](O)[C@]12C [GLYCOCHOLIC ACID] | -0.31 | -58.4 | – | – | -23.7 | – | –
4 | O=c1c(O)c(-c2ccc(O)c(O)c2)oc2c(O)c(O)cc(O)c12 [GOSSYPETIN] | – | -17.5 | – | – | -2.6 | -0.04 | –
5 | Cc1cc2c(C(C)C)c(O)c(O)c(C=O)c2c(O)c1-c1c(C)cc2c(C(C)C)c(O)c(O)c(C=O)c2c1O [GOSSYPOL] | – | 21.4 | 26.6 | – | – | 0.45 | –
6 | CN(C)Cc1c[nH]c2ccccc12 [GRAMINE] | – | -43.9 | -33.5 | – | – | -0.42 | –
7 | COC1=CC(=O)C[C@@H](C)[C@]12Oc1c(Cl)c(OC)cc(OC)c1C2=O [GRISEOFULVIN] | 0.30 | 66 | 18.7 | 9 | – | – | –
8 | CC(=O)O[C@@H]1[C@H]2CC[C@H]3[C@@](C)(O)[C@@H]4C[C@H](O)C(C)(C)[C@@]4(O)[C@H](O)C[C@@]13C[C@@]2(C)O [GR[…]] | – | 3.95 | – | – | -2.4 | -0.03 | –
9 | COc1ccccc1O [GUAIACOL] | 0.02 | -32.9 | 1.6 | – | – | – | –
10 | Cc1ccc(C(C)C)cc2c(C)ccc1-2 [GUAIAZULENE] | -0.34 | -38.2 | -27 | – | – | – | –
11 | CC1=C(CCC(=O)O)c2cc3[nH]c(cc4nc(cc5[nH]c(cc1n2)c(C)c5C(C)O)C(C)=C4C(C)O)c(C)c3CCC(=O)O (stereo not shown) [HAEMATOPORPHYRIN] | 1.45 | 93.1 | 63.3 | 33 | – | – | –
12 | Oc1cc2c(cc1O)C1c3ccc(O)c(O)c3OCC1(O)C2 (stereo not shown) [HAEMATOXYLIN] | 0.00 | -27.2 | 0.1 | – | – | – | –
13 | COc1ccc2c3c([nH]c2c1)C(C)=NCC3 [HARMALINE] | – | -31.9 | – | – | 0.9 | 0.01 | –
14 | Cc1nccc2c1[nH]c1ccccc12 [HARMANE] | – | -23.2 | – | – | 4.5 | 0.07 | –
15 | COc1ccc2c(c1)[nH]c1c(C)nccc12 [HARMINE] | – | 82.2 | – | -62 | 28.6 | 0.49 | –
16 | Cc1nccc2c1[nH]c1cc(O)ccc12 [HARMOL HYDROCHLORIDE] | – | -55.1 | – | – | -10.1 | -0.14 | –
17 | C[C@]1(OC(=O)/C=C/c2ccccc2)C[C@@H](O)[C@]2(O)C=CO[C@@H](O[C@@H]3O[C@H](CO)[C@@H](O)[C@H](O)[C@H]3O)[C@@H]21 [HARPAGOSIDE] | 0.36 | -42.1 | 21.8 | – | – | – | –
18 | CC(=O)O[C@H]1CC[C@@]2(C)[C@@H](CC[C@@H]3[C@@H]2CC(=O)[C@]2(C)[C@@H]4[C@H](C[C@@H]32)O[C@]2(CC[C@@H](C)CO2)[C@H]4C)C1 [HECOGENIN ACETATE] | -0.05 | 6.66 | -3.7 | – | – | – | –
19 | CC1(C)CC[C@]2(C(=O)O)CC[C@]3(C)C(=CC[C@@H]4[C@@]5(C)CC[C@H](O)[C@@](C)(CO)[C@@H]5CC[C@]43C)[C@@H]2C1 [HEDERAGENIN] | – | 53.4 | – | – | -7.7 | -0.11 | –
20 | C=C1C(=O)O[C@@H]2C[C@@]3(C)CCC[C@H](C)C3=C[C@H]12 [HELENINE] | 0.10 | -20 | 6.4 | – | – | – | –
21 | O=Cc1ccccc1O[C@@H]1O[C@H](CO)[C@@H](O)[C@H](O)[C@H]1O [HELICIN] | 0.07 | 18.6 | – | – | 4.7 | – | –
22 | O=C1C=C2CC3(O)COc4c(ccc(O)c4O)C3=C2C=C1O (stereo not shown) [HEMATEIN] | 0.13 | 10.1 | 8.6 | – | – | – | –
23 | COc1ccc([C@@H]2CC(=O)c3c(O)cc(O)cc3O2)cc1O [HESPERETIN] | -0.02 | 17.6 | -1.2 | – | – | – | –
24 | COc1cc(O)c2c(=O)cc(C)oc2c1CC=C(C)C [HETEROPEUCENIN, METHYL ETHER] | -0.10 | -96.3 | -7.2 | – | – | – | –
25 | NCCc1c[nH]cn1 [HISTAMINE DIHYDROCHLORIDE] | – | -20.6 | – | – | 1.3 | – | 0.02
26 | COc1ccc2c(c1)O[C@H]1c3ccc(OC)cc3OC[C@@H]21 [HOMOPTEROCARPIN] | – | 5.57 | – | – | -0.7 | -0.01 | –

Row | SMILES | Hs18S ΔCT ([1]; human, 41 h, 10 μM) | inhibition at 10 µM [2] [%] | cytotoxicity at 41 h, 10 µM [3] [%] | inhibition at 3.3 µM [2] [%] | cytotoxicity at 10 µM [3] [%] | Hs18S ΔCT [1, 4] | Hs18S ΔCT [1]
27 | C/C=C1\[C@H]2C=C(C)C[C@]1(N)c1ccc(=O)[nH]c1C2 [HUPERZINE A] | – | 37.6 | – | – | 12.4 | 0.19 | –
28 | C[C@]12CCC(=O)C=C1CC[C@@H]1[C@@H]2[C@@H](O)C[C@@]2(C)[C@H]1CC[C@]2(O)C(=O)CO [HYDROCORTISONE] | -0.47 | 21.1 | -38.1 | – | – | – | –
29 | CC(C)/C(O)=C1/C(=O)O[C@@H](c2ccoc2)[C@]2(C)C(O)[C@@H](O)[C@@]34OC5(C)OC67CC(C)(C(O)[C@]6(O)[C@@H](O)[C@]3(O5)C12)[C@H](CC(=O)O)[C@]74C (stereo partly shown) [HYDROLYSIS PRODUCT OF BUSSEIN] | -0.69 | 8.3 | -60.9 | – | – | – | –
30 | COc1ccc2c(C)cc(=O)oc2c1 [HYMECROMONE METHYL ETHER] | 0.26 | -1.44 | 16.6 | – | – | – | –
31 | CN1[C@@H]2CC[C@H]1C[C@@H](OC(=O)[C@H](CO)c1ccccc1)C2 [HYOSCYAMINE] | – | 36.2 | – | – | -8.9 | -0.12 | –
32 | O=c1[nH]cnc2nc[nH]c12 [HYPOXANTHINE] | 0.22 | 23.2 | 14.3 | – | – | – | –
33 | COc1ccc(-c2oc3c(CC=C(C)C)c(O[C@@H]4O[C@H](CO)[C@@H](O)[C@H](O)[C@H]4O)cc(O)c3c(=O)c2O[C@@H]2O[C@@H](C)[C@H](O)[C@@H](O)[C@H]2O)cc1 [ICARIIN] | -0.22 | -12.3 | -16.4 | – | – | – | –
34 | OCc1c[nH]c2ccccc12 [INDOLE-3-CARBINOL] | – | 0.77 | -31.7 | – | – | -0.40 | –
35 | O[C@H]1[C@H](O)[C@@H](O)[C@H](O)[C@@H](O)[C@H]1O [INOSITOL] | – | 11.9 | 5.5 | – | – | 0.08 | –
36 | COc1c(O)cc(O)cc1O [IRETOL] | -0.32 | -15 | -24.7 | – | – | – | –
37 | COc1cc(-c2coc3cc(O[C@@H]4O[C@H](CO)[C@@H](O)[C@H](O)[C@H]4O)c(OC)c(O)c3c2=O)cc(O)c1OC [IRIDIN] | -0.14 | -13.3 | -10 | – | – | – | –
38 | COc1cc(-c2coc3cc(OC)c(OC)c(OC)c3c2=O)cc(OC)c1OC [IRIGENIN TRIMETHYL ETHER] | – | 13.7 | – | – | -39.9 | -0.48 | –
39 | COc1cc(-c2coc3cc(OCc4ccccc4)c(OC)c(O)c3c2=O)cc(OCc2ccccc2)c1OC [IRIGENIN, DIBENZYL ETHER] | 0.00 | -15.7 | 0 | – | – | – | –
40 | COc1cc(-c2coc3cc(O)c(OC)c(O)c3c2=O)cc(O)c1OC [IRIGENIN] | -0.43 | -15 | -34.9 | – | – | – | –
41 | O=c1c(-c2cc(O)c(O)c(O)c2)coc2cc(O)c(O)c(O)c12 [IRIGENOL] | 0.01 | -13.4 | 0.7 | – | – | – | –
42 | COc1cc2occc2c2oc(=O)ccc12 [ISOBERGAPTENE] | – | 2 | – | – | 11 | 0.17 | –
43 | C=C1CCC2C(CC2(C)C)C(=O)CCC1O (stereo not shown) [ISOKOBUSONE] | -0.25 | -33.5 | -18.7 | – | – | – | –
44 | O=C(/C=C/c1ccc(O)cc1)c1ccc(O)cc1O [ISOLIQUIRITIGENIN] | -0.34 | 52.9 | -26.4 | – | – | – | –
45 | COc1cc(O)ccc1C(C)=O [ISOPEONOL] | 0.03 | -12.8 | 2.3 | – | – | – | –
46 | COc1c2ccoc2c(OC)c2oc(=O)ccc12 [ISOPIMPINELLIN] | -0.24 | -23.2 | -18.1 | – | – | – | –
47 | COc1cc2c(cc1OC)[C@@H]1C(=O)c3ccc4oc(C(C)C)cc4c3O[C@@H]1CO2 [ISOROTENONE] | – | 2.53 | – | – | 38.9 | 0.71 | –
48 | COc1cc(O)c2c(=O)c(O)c(-c3ccccc3)oc2c1 [IZALPININ] | 0.18 | 18.4 | 11.5 | – | – | – | –
49 | O=C(O)/C=C/C=C/c1ccccc1 [JUAREZIC ACID] | -0.57 | -55.9 | -48.4 | – | – | – | –
50 | O=C1C=CC(=O)c2c(O)cccc21 [JUGLONE] | – | -17.7 | – | – | 11.2 | – | 0.17
51 | O=c1c(O)c(-c2ccc(O)cc2)oc2cc(O)cc(O)c12 [KAEMPFEROL] | 0.54 | 19.8 | 31.2 | – | – | – | –
